# Laboratory results as given in article PMC10648937, “Drug distribution and efficacy of the DprE1 inhibitor BTZ-043 in the C3HeB/FeJ mouse tuberculosis model” (Antimicrobial Agents and Chemotherapy, 2023).
# Like-named read-outs stand apart in the source and are kept apart here.
# How the values were obtained:
# Mtb Erdman [1] = experiment: Semi-quantitative MBC (sqMBC) assay; format: cell-based, Mycobacterium tuberculosis; conditions: M. tuberculosis Erdman; for sqMBC: 10 d incubation, 99% (2-log10) CFU reduction of inoculum; for sqMBC + huSA: with 4% huSA
# Mtb Erdman [2] = experiment: Broth microdilution MIC (Alamar Blue endpoint), with and without 4% huSA (serum-shift assay); conditions: for MIC: Mycobacterium tuberculosis, ERDMAN
# [3] = system: non-replicating Mtb in rabbit caseum; parameters: method as in PMID 34370580; conditions: similarly reported previously; cited from earlier work
# Mtb = system: Mtb; parameters: method as in PMID 34370580; conditions: C3HeB/FeJ mice, 8 weeks (5 of 7 days per week), cited from earlier work
Structure (SMILES),sqMBC (Mtb Erdman [1]),MIC (Mtb Erdman [2]),sqMBC + huSA (Mtb Erdman [1]),MIC (Mtb Erdman [2]; read-out: MIC + huSA),shift in MIC in the presence of huSA (Mtb Erdman [2]; physiologic levels (4%) of huSA),activity against non-replicating Mtb in rabbit caseum MBC assay [3],average lung CFU reduction compared to untreated controls (Mtb; 50 and 100 mg/kg QD),average lung CFU reduction compared to untreated controls (Mtb; 100 and 200 mg/kg BID)
COc1c(N2C[C@@H]3CCCN[C@@H]3C2)c(F)cc2c(=O)c(C(=O)O)cn(C3CC3)c12 [moxifloxacin],0.125 µg/mL,0.06 µg/mL,–,–,–,–,–,–
O=c1nc(N2CCN(CC3CCCCC3)CC2)sc2c([N+](=O)[O-])cc(C(F)(F)F)cc12 [PBTZ169],≤ 0.002 µg/mL,≤ 0.002 µg/mL,0.016 µg/mL,0.016 µg/mL,8 fold,lacked appreciable activity,1.5 log10,–
COc1ncnc(Cn2cc(C(=O)NCCO)c3ncc(C)cc32)c1C [TBA-7371],1 µg/mL,0.5 µg/mL,1 µg/mL,1 µg/mL,–,lacked appreciable activity,–,1.5 log10
